Patent publication US4221789A, “Lactam-N-acetic acids and their amides” (UCB, Societe Anonyme, priority 1978, dated 1980)
Counter-ions that a name gives are not always drawn. Like-named read-outs stand apart in the source and are kept apart here.

Tests used:
mice = test: toxicity in mice, intraperitoneal (Irwin's test); type: in vivo
Description: The compounds of formula I have a remarkably low toxicity.
*Dose which brings about the death of one animal out of three in Irwin's
test (S. IRWIN, Gordon Research Conference on Medicinal Chemistry, Colby
Junior College, New London, 1959).

rat [1] = test: active avoidance test (memory retention; paw withdrawal threshold); type: in vivo; conditions: for minimal effective dose: sc, read-out: Active dose
Description: (A) The action on mnemic processes is first shown by the ability of the compounds to improve a type of memory retention in the rat. The principle of the active avoidance test (see M. GREINDL and S. PREAT, Arch.Int. Pharmacodyn.Therap.223,(1976),(1),168-171) developed in our laboratories and used for this purpose, may be described as follows: the withdrawal reaction of a rat's paw when subjected to an increasing, quantified pressure is observed. The pressure at which the withdrawal reaction is produced, is called the reaction threshold. This threshold is expressed by the number of graduations of the scale of the apparatus used (Analgesymeter Ugo Basile, Milan) and thus corresponds to the minimum pressure which brings about withdrawal when applied to the animal's paw. It is read off directly on the scale of the apparatus used.
Inversely, animals treated with a substance having a positive effect on the mnemic processes (such as piracetam) show a significant degree of retention: the stimulus to which the rats react by a reflex of avoidance is statistically lower than that of the control animals. A minimum of 20 rats per test are used (10 treated rats and 10 control rats) and the active dose is defined as the minimum dose lowering the stimulus to below 11 graduations.

rat [2] = test: reduction of the spinal fixation time; type: in vivo; conditions: for minimal effective dose: ip, 35 min, read-out: Active dose
Description: (B) The action on the mnemic processes is also shown by the reduction of the spinal fixation time, a test which has been described in literature (see C. GIURGEA and F. MOURAVIEFF-LESUISSE, Arch.Int.Pharmacodyn.191,(1971,No. 2), 279) as an elementary model of memory and which provides pharmacological reactivity in good correlation with clinical physiopathology. In the rat, after unilateral lesion of the cerebellum, there is a postural asymmetry of the hind paws. This asymmetry may-persist, even after spinal section, if the animal has passed a sufficient period of time in this position. This time, which is called the spinal fixation time, is 45 minutes under the experimental conditions applied here.
On the other hand, if spinal section is performed before the expiry of this period of time, for example 35 minutes after the onset of asymmetry, the latter disappears.
Inversely, any product which allows the rats to retain the asymmetry (thus effecting spinal fixation), when the spinal section is performed after 35 minutes, is considered to be active.
By "number of animals" is to be understood the number of animals which responded positively to the test in relation to the number of animals tested at the dose indicated: […]

[3] = tested on: papillary muscle isolated from the cat's heart; test: "papillary muscle" test (inotropic activity); conditions: for activation at 10 µg/kg, 0.01 mg/kg: Felis catus, read-out: increase of the strength of muscular contraction
Method: The method used is that of M. K. CATTELL and H. GOLD (J.Pharmacol.Exptl. Therap.62, (1938), 116-125). The experiment is carried out on a papillary muscle isolated from the cat's heart and dipped in a physiological salt solution to which the compound to be tested is added.

[4] = toxicity in the rat, intravenous or oral (LD 50); conditions: in vivo
Description: Furthermore, when administered intravenously (i.v.) or orally in the rat, the compounds also have a low toxicity, as indicated in the following Table: […]

[5] = rat, intraperitoneal, 0.1 mmol/kg, spinal section after 35 minutes
[6] = rat, subcutaneous, minimum dose lowering the stimulus to below 11 graduations, tested 24 hours later
[7] = rat, intraperitoneal, spinal section after 35 minutes
[8] = rat, intraperitoneal, 0.2 mmol/kg, spinal section after 35 minutes

SMILES | Dose which brings about the death of one animal out of three in Irwin's test (mice; mice, intraperitoneal) [mg/kg] | minimal effective dose (rat [1]; Rattus norvegicus, 24 h) [µmol/kg] | Dose which brings about the death of one animal out of three in Irwin's test (mice; mouse, in vivo, ip) [mg/kg] | further results
CC1CCN(C(CCO)C(N)=O)C1=O (stereo not drawn) [Example 4.2, alpha-(2-Hydroxyethyl)-3-methyl-2-oxo-1-pyrrolidineacetamide] | > 1200 |  |  | 
O=C(NCc1ccccc1)C(CCO)N1CCCC1=O (stereo not drawn) [Example 6.6, N-Benzyl-alpha-(2-hydroxyethyl)-2-oxo-1-pyrrolidineacetamide] | 822 | 2 |  | minimal effective dose (rat [2]; Rattus norvegicus): 100 µmol/kg; Number of animals which responded positively / number tested (rat [2]; [5]): 3/7
O=C(NC1CCCC1)C(CCO)N1CCCC1=O (stereo not drawn) [Example 6.5, N-cyclopentyl-alpha-(2-hydroxyethyl)-2-oxo-1-pyrrolidineacetamide] |  |  | > 762 | minimal effective dose (rat [1]; [6]): 0.2 µmol/kg
O=C(C(CCO)N1CCCC1=O)N1CCCCC1 (centres unmarked) [Example 6.2, 1-[4-Hydroxy-2-(2-oxo-1-pyrrolidinyl)butyryl]-piperidine] | > 1524 |  |  | 
CCC(C(N)=O)N1CCCC1=O (stereo not drawn) [Compound B, alpha-ethyl-2-oxo-1-pyrrolidineacetamide, reference compound] |  | 5 |  | minimal effective dose (rat [2]; [7]): 200 µmol/kg; Number of animals which responded positively / number tested (rat [2]; [8]): 7/22
NC(=O)C(CCO)N1CCCC1=O (stereo not drawn) [Example 4.1, alpha-(2-Hydroxyethyl)-2-oxo-1-pyrrolidineacetamide] | > 1116 | 2 |  | activation at 10 µg/kg, 0.01 mg/kg [3]: 7%; inotropic activity ([3]; isolated cat papillary muscle, comparison with caffeine): superior to that of caffeine; minimal effective dose (rat [2]; Rattus norvegicus): 100 µmol/kg; Number of animals which responded positively / number tested (rat [2]; [5]): 3/7; LD50 ([4]; iv): > 4000 mg/kg; LD50 ([4]; po, orally): > 10000 mg/kg
O=C(O)C(O)N1CCCC1=O (stereo not drawn) [Example 2, alpha-Hydroxy-2-oxo-1-pyrrolidineacetic acid (dicyclohexylamine salt)] |  |  | > 102 | minimal effective dose (rat [1]; [6]): 5 µmol/kg; minimal effective dose (rat [2]; [7]): 100 µmol/kg; Number of animals which responded positively / number tested (rat [2]; [5]): 4/7
O=C(O)C(CCO)N1CCCC1=O (stereo not drawn) [Example 3, alpha-(2-Hydroxyethyl)-2-oxo-1-pyrrolidineacetic acid] |  |  | > 1222 | minimal effective dose (rat [2]; [7]): 100 µmol/kg; Number of animals which responded positively / number tested (rat [2]; [5]): 4/7
CC(C)NC(=O)C(CCO)N1CCCC1=O (stereo not drawn) [Example 5.4, alpha-(2-Hydroxyethyl)-N-isopropyl-2-oxo-1-pyrrolidineacetamide] | > 1368 |  |  | 
NC(=O)C(CCO)N1CC(c2ccc(Cl)cc2)C(c2ccccc2)C1=O (stereo not drawn) [Example 4.5, 4-p-Chlorophenyl-alpha-(2-hydroxyethyl)-3-phenyl-2-oxo-1-pyrrolidineacetamide] |  |  | > 224 | 
O=C(O)CN1CCCC1=O [Compound C, 2-oxo-1-pyrrolidineacetic acid, reference compound] |  |  |  | activity in the active avoidance test (rat [1]; rat, subcutaneous, at the dose of 0.1 mmol/kg): inactive; minimal effective dose (rat [2]; [7]): 320 µmol/kg; Number of animals which responded positively / number tested (rat [2]; rat, intraperitoneal, 0.32 mmol/kg, spinal section after 35 minutes): 2/4
O=C(C(CCO)N1CCCC1=O)N1CCN(Cc2ccccc2)CC1 (centres unmarked) [Example 6.4, 1-Benzyl-4-[4-hydroxy-2-(2-oxo-1-pyrrolidinyl)butyryl]-piperazine] |  |  | > 345 | minimal effective dose (rat [1]; [6]): 1 µmol/kg
CCCCC1CCN(C(CCO)C(N)=O)C1=O (stereo not drawn) [Example 4.4, 3-n-Butyl-alpha-(2-hydroxyethyl)-2-oxo-1-pyrrolidineacetamide] |  |  | > 1452 | 
O=C(C(CCO)N1CCCC1=O)N1CCOCC1 (centres unmarked) [Example 6.1, 4-[4-Hydroxy-2-(2-oxo-1-pyrrolidinyl)butyryl]-morpholine] | > 1536 | 0.2 |  | 
CCN(CC)C(=O)C(CCO)N1CCCC1=O (stereo not drawn) [Example 5.3, N,N-Diethyl-alpha-(2-hydroxyethyl)-2-oxo-1-pyrrolidineacetamide] | > 1452 | 0.2 |  | 
NC(=O)CN1CCCC1=O [Compound A, 2-oxo-1-pyrrolidineacetamide, reference compound] |  | 25 |  | minimal effective dose (rat [2]; [7]): 200 µmol/kg; Number of animals which responded positively / number tested (rat [2]; [8]): 4/9
O=C(NC1CCCCC1)C(CCO)N1CCCC1=O (stereo not drawn) [Example 5.2, N-Cyclohexyl-alpha-(2-hydroxyethyl)-2-oxo-1-pyrrolidineacetamide] |  |  | > 1608 | 
CCCCNC(=O)C(CCO)N1CCCC1=O (stereo not drawn) [Example 5.1, N-n-Butyl-alpha-(2-hydroxyethyl)-2-oxo-1-pyrrolidineacetamide] | > 1452 |  |  | 
CCCNC(=O)C(CCO)N1CCCC1=O (stereo not drawn) [Example 6.3, alpha-(2-Hydroxyethyl)-N-propyl-2-oxo-1-pyrrolidineacetamide] | > 1368 | 0.1 |  | 
CC1CC(C)N(C(CCO)C(N)=O)C1=O (stereo not drawn) [Example 4.3, alpha-(2-Hydroxyethyl)-3,5-dimethyl-2-oxo-1-pyrrolidineacetamide] | > 1286 |  |  | 
Cn1c(=O)c2c(ncn2C)n(C)c1=O [caffeine, reference compound] |  |  |  | activation at 10 µg/kg, 0.01 mg/kg ([3]; isolated cat papillary muscle, at the dose of 10 μg/kg): 4%
